Test results reported in ChEMBL document CHEMBL1134501, “Structure-activity studies for a novel series of bicyclic substituted hexahydrobenz[e]isoindole alpha1A adrenoceptor antagonists as potential agents for the symptomatic treatment of benign prostatic hyperplasia” (J Med Chem, 2001).

Key:
[1] = molecular target: T1, Alpha-1D adrenergic receptor (Rattus norvegicus, UniProt P23944); test: Binding affinity to rat alpha-1D adrenergic receptor expressed in LTK cells; assay type: cell-based
T1 sequence (P23944 whole entry): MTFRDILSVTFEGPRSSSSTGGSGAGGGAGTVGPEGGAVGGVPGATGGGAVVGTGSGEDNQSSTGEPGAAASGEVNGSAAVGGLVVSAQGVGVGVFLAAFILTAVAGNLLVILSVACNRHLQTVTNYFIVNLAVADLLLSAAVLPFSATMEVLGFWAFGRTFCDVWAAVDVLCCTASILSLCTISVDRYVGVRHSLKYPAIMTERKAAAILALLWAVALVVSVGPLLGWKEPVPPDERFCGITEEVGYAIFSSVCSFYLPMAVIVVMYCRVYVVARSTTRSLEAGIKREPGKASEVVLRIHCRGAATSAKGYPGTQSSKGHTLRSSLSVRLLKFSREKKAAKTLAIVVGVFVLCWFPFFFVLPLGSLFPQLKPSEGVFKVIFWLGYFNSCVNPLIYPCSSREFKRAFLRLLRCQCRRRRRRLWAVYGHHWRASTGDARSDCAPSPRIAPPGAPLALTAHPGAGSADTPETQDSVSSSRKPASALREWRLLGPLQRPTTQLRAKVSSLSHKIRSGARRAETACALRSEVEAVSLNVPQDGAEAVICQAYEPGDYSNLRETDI

[2] = molecular target: T2, Alpha-1A adrenergic receptor (Rattus norvegicus, UniProt P43140); test: Binding affinity to alpha-1A adrenergic receptor in rat submaxillary gland; assay type: tissue-based
T2 sequence (P43140 whole entry): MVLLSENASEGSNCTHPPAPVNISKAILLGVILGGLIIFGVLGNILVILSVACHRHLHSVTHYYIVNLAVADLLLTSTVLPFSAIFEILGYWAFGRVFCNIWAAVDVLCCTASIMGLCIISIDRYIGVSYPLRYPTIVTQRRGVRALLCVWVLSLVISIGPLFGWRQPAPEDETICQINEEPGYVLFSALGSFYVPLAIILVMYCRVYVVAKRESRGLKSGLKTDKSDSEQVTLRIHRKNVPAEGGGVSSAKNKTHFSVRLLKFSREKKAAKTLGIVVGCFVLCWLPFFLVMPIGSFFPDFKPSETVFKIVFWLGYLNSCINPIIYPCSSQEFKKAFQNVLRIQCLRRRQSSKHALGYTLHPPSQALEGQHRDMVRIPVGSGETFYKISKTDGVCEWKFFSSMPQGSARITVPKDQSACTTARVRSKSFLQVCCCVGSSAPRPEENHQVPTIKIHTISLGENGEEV

[3] = organism: Cricetulus griseus; test: Selectivity ratio (alpha-1B/alpha-1A) of the compound
[4] = test system: Canis familiaris; test: In vivo antagonist dissociation constant in intaraurethral pressure model in dogs.; conditions: Canis lupus familiaris, read-out: pA2 (converted)
[5] = molecular target: T3, Alpha-1B adrenergic receptor (Rattus norvegicus, UniProt P15823); test: In vitro antagonistic activity against alpha-1B receptor in rat spleen.; assay type: functional, tissue-based; conditions: read-out: pA2 (converted)
T3 sequence (P15823 whole entry): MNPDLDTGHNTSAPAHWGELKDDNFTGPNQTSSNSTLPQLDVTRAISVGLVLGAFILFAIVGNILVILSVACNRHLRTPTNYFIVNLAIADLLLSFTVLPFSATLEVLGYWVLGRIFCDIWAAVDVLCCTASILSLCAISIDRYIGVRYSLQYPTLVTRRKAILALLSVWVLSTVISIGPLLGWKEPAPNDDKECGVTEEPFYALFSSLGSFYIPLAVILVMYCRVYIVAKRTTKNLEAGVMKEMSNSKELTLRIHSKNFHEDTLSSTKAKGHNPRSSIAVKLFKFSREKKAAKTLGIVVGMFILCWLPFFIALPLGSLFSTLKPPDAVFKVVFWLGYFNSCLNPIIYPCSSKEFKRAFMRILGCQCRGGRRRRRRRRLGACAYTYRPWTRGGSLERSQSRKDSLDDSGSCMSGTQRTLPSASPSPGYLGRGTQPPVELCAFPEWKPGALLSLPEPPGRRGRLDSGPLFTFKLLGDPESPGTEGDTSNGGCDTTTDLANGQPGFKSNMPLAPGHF

Compound	Ki [1] [nM]	Ki [2] [nM]	Ratio [3]	Kb [5] [nM]	Kb [4] [nM]
COc1cccc2c1CC[C@H]1CN(CCn3c(=O)[nH]c4c(C(C)C)c(OC)sc4c3=O)C[C@@H]21	1.5	0.41	5.6		
COc1cccc2c1CC[C@H]1CN(CCn3c(=O)[nH]c4ccsc4c3=O)C[C@@H]21	0.92	1.39			
COc1cc2[nH]c(=O)n(CCN3C[C@@H]4CCc5c(OC)cccc5[C@@H]4C3)c(=O)c2cc1Cl	2.71	1.89	4.9		
COc1cc2nc(N3CCN(C(=O)C4CCCO4)CC3)nc(N)c2cc1OC (stereo not given) [TERAZOSIN]					95.5
COc1cccc2c1CC[C@H]1CN(CCn3c(=O)[nH]c4c(-c5ccccc5)csc4c3=O)C[C@@H]21	0.66	0.33	1		
COc1cc2c(cc1OC)C(=O)N(CCN1C[C@@H]3CCc4c(OC)cccc4[C@@H]3C1)CN2	72	12.9	7.4		
COc1cc2nc(N(C)CCCNC(=O)C3CCCO3)nc(N)c2cc1OC (stereo not given) [ALFUZOSIN]				4.9	135
COc1cc2c(=O)n(CCN3C[C@@H]4CCc5c(OC)cccc5[C@@H]4C3)c(=O)n(C)c2cc1OC	3.71	0.25	13.2		
COc1cccc2c1CC[C@H]1CN(CCn3c(=O)[nH]c4cccnc4c3=O)C[C@@H]21	2.5	3.58	2.29		
COC(=O)c1cc2[nH]c(=O)n(CCN3C[C@@H]4CCc5c(OC)cccc5[C@@H]4C3)c(=O)c2s1	1.38	1.48	2.3		
COc1cc2c(cc1OC)C(=O)N(CCN1C[C@@H]3CCc4c(OC)cccc4[C@@H]3C1)CC2	58.4	7.82	7.83		

Now from value to molecule, other results behind:

Ki [1] [nM]	Ki [2] [nM]	Ratio [3]	Kb [5] [nM]	Compound	Kb [4] [nM]
1.99				COc1cccc2c1CC[C@H]1CN(CCn3c(=O)[nH]c4ncccc4c3=O)C[C@@H]21	
0.89	0.09	14.6		COc1cccc2c1CC[C@H]1CN(CCn3c(=O)[nH]c4c(C)c(C)ccc4c3=O)C[C@@H]21	
1.67	1.2	2.15		COc1cccc2c1CC[C@H]1CN(CCn3c(=O)[nH]c4[nH]ccc4c3=O)C[C@@H]21	
0.62	0.67	1.73		COc1cccc2c1CC[C@H]1CN(CCn3c(=O)[nH]c4ccccc4c3=O)C[C@@H]21	
2.87	6.8	1.55		COc1cccc2c1CC[C@H]1CN(CCn3c(=O)[nH]c4ccncc4c3=O)C[C@@H]21	
0.92	1.39	1.17		COc1cccc2c1CCC1CN(CCn3c(=O)[nH]c4ccsc4c3=O)CC21 (stereo not given)	
1.45	1.09	6.5		COc1cccc2c1CC[C@H]1CN(CCn3c(=O)[nH]c4c(C)c(OC)sc4c3=O)C[C@@H]21	
0.77	0.27	6.07		COC(=O)c1ccc2c(=O)n(CCN3C[C@@H]4CCc5c(OC)cccc5[C@@H]4C3)c(=O)[nH]c2c1	
1.13	1.02	3.68		COc1ccc2[nH]c(=O)n(CCN3C[C@@H]4CCc5c(OC)cccc5[C@@H]4C3)c(=O)c2c1	
0.41	0.43	1.95		COc1cccc2c1CC[C@H]1CN(CCn3c(=O)[nH]c4cc(NC(C)=O)ccc4c3=O)C[C@@H]21	
0.21	0.09	7.3		COc1ccc2c(=O)n(CCN3C[C@@H]4CCc5c(OC)cccc5[C@@H]4C3)c(=O)[nH]c2c1	
